The values that follow are results of earlier work, collected in US20240325362A1, “NOVEL THERAPEUTIC METHOD FOR ENHANCING MITOCHONDRIAL FUNCTION, TREATING MITOCHONDRIAL DISEASES THEREBY, AND COMPOUNDS USED THEREIN” (STANDIGM INC., priority 2020, published 2024).

The test system of the data set is muscle mitochondrial function. The conditions noted are these: clinical study, as an NAD+ precursor.

Each structure is given as a SMILES string.

For the compound `Cc1cnc(C(=O)O)c[n+]1[O-]` [acipimox], the “effect on muscle mitochondrial function” value is on record as “beneficial effect on muscle mitochondrial function”.
